Publication PMC5199130 (Molecular Systems Biology, 2016)

B1: Lem14 (Lpg1851) 1–220, purified and crystallised (natural protein)
chain: MSFELVAYEKLKGSIRESIITLIKSHNEKAKIIEDKLEYSVKEVSRERQPQVLVLLKTIELLDNSSKEPEDKARVLNALAYYIRDQIAATYKYTSPDNSDFYKSLTISLDLNKDNNPNREDLADMYSALEKFLRSHVYKNSDPRKGYLDKQPFAIKHYSVVDDILELSDRVHKLRHEIIIAARDLHLLQQKPKSSQGGLFSVPSGKEKVTDTHEVANHRL

Columns and labels:
MavQ = biological target: T1, MavQ (Legionella pneumophila, UniProt Q5ZRA8)
T1 construct: gene lpg2975

[1] = biological target: RavJ (Lpg0944) 1–230, purified (Legionella pneumophila str. Philadelphia-1) (UniProt Q5ZWY9); test: crystal structure
crystal structure = biological target: the molecule itself; test: crystal structure

Molecule | ADP-Glo kinase assay (MavQ) | other results
Nc1ncnc2c1ncn2[C@@H]1O[C@H](COP(=O)(O)OP(=O)(O)OP(=O)(O)O)[C@@H](O)[C@H]1O [ATP] | wild‐type MavQ, but not the D147A mutant, possesses robust ATP hydrolysis activity | –
CCCCCCCC(=O)OC[C@H](COP(=O)(O)O[C@@H]1[C@H](O)[C@H](O)[C@@H](O)[C@H](O)[C@H]1O)OC(=O)CCCCCCC [PI diC8] | addition of phosphoinositide to this reaction increased the activity of the wild‐type MavQ fivefold | –
LegL1 (Lpg0945) 1–296, purified (from UniProt Q5ZWY8 1-296) (natural protein) | – | stoichiometry N [1]: 1
B1 | – | stoichiometry N (crystal structure): 2
